Like-named read-outs stand apart in the source and are kept apart here.
System: Kornkäfer (sitophilus granarius L)
Assay: whole plant or invertebrate
Format: in vivo
Details: for mortality at 1000 µg/mL: read-out: Wirksamkeit in % Substanz allein
Protocol: Test von tertiären, heterocyclischen Aminen allein und im Gemisch mit Pyrethroiden an Kornkäfern (sitophilus granarius L)
In Petrischalen mit 15 cm Durchmesser mit talcumbepuderten Seitenwänden, um das Entfliehen der Kornkäfer zu verhindern, wurden jeweils 2 ml der Acetonlösungen einpipettiert und durch vorsichtiges Schwenken der Schalen gleichmäßig auf dem Boden verteilt. Nach dem Abdampfen des Acetons und dem Antrocknen der Beläge wurden in jede Schale 25 Kornkäfer eingezählt. Nach einer Stunde wurde jeweils ein 12,5 cm Rundfilter in die Schalen eingelegt, um den Käfern das Befreien aus der Rückenlage zu ermöglichen, was auf der glatten Glasplatte nicht möglich ist. Die lichtscheuen Käfer verkrochen sich mit Vorliebe unter die Filter und blieben so ständig mit den Wirkstoffbelägen in Kontakt. Alle Versuche liefen mit 3 Wiederholungen. Nach 3 h wurden die toten Käfer ausgezählt.
In der Tabelle 3 ist jeweils der Durchschnitt der Summe der 4 Einzelwerte angegeben. 25 tote Kornkäfer entsprechen dabei einer Wirkung von 100 %. Die Temperaturen betrugen während der Tests im Durchschnitt 19 - 21°C. Der synergistische Faktor berechnet sich analog wie in Beispiel 1 angegeben.
Die zu prüfenden tertiären, heterocyclischen Amine wurden - mit 1 mg Wirkstoff pro ml als Acetonlösungen angesetzt. Sie wurden im Verhältnis 1 : 1 mit Ripcord bzw. Talcord, die mit 0,01 mg Wirkstoff pro ml als Acetonlösung vorlagen, gemischt. Die Einzelkomponenten wurden im Verhältnis 1 : 1 mit Aceton gemischt.
Auch bei diesen Versuchen zeigten die Kontrollversuche stets bei Versuchsende eine Mortalität der Kornkäfer von 0 %.
Die synergistische Wirkung der tertiären, heterocyclischen Amine auf die Pyrethroide ist auch dann noch deutlich, wenn das Amin in wesentlich niederen Aufwandmengen eingesetzt wird, als dies in Beispiel 3 beschrieben wurde. Die Ergebnisse sind in der Tabelle 4 zusammengestellt. Dieser Versuch zeigt auch, daß Amine mit insektiziden Eigenschaften, wenn sie in Konzentrationen unterhalb ihres insektiziden Wirkungsbereiches eingesetzt werden, immer noch gute synergistische Wirkungen im Gemisch mit Pyrethroiden zeigen. Die Versuche wurden wie im Beispiel 3 beschrieben mit Kornkäfern durchgeführt. Es wurden lediglich die Konzentrationen der eingesetzten tertiären, heterocyclischen Amine geändert. Für die Verdünnung Pyrethroid : Amin = 1 : 10 wurde das Amin mit 0,1 mg Wirkstoff/ml Acetonlösung eingesetzt. Für die Verdünnung 1 : 5 mit 0,05 mg Wirkstoff/ml.

[1] = amine 1 mg/ml + Ripcord 0,01 mg/ml
[2] = amine 1 mg/ml + Talcord 0,01 mg/ml
[3] = amine 1 mg/ml in Aceton mixed 1 : 1 with Aceton, 2 ml per dish, 25 weevils, dead counted after 3 h
[4] = amine 1 mg/ml mixed 1 : 1 with Ripcord 0,01 mg/ml, 3 h
[5] = amine 1 mg/ml mixed 1 : 1 with Talcord 0,01 mg/ml, 3 h
[6] = Sitophilus granarius, amine 1 mg/ml in Aceton mixed 1 : 1 with Aceton, 2 ml per dish, 25 weevils, dead counted after 3 h
[7] = sitophilus granarius, in vivo, 3 h
[8] = Pyrethroid : Amin 1 : 10, amine 0,1 mg/ml, 180 min

Compound | Synergistischer Faktor bei Ripcord [1] | Synergistischer Faktor bei Talcord [2] | Wirksamkeit in % Substanz allein [3] [%] | Wirksamkeit in % Substanz +Ripcord [4] | Wirksamkeit in % Substanz +Talcord [5] | mortality at 1000 µg/mL [6] [%] | further results
c1ccc(CCN2CCOCC2)cc1 [N-1-Phenyl-ethyl-(2)-morpho-lin] | 2,76 | 7,55 | 0 | 86,8% | 73,2% | – | –
CC1(C)C(C=C(Cl)Cl)C1C(=O)OC(C#N)c1cccc(Oc2ccccc2)c1 (stereo not drawn) [Ripcord, reference compound] | – | – | – | – | – | – | Wirksamkeit von Ripcord (Ripcord alone, 0,01 mg/ml mixed 1 : 1 with Aceton, 3 h): Wirksamkeit von Ripcord: 31,5%
CCCCCCCCN1CCCCC1CC (stereo not drawn) [N-1-Octyl-2-ethyl-piperidin] | 1,52 | 2,60 | – | 74,8% | 52,0% | 26.8 | –
CCCCOCCOCCN1CCCC1 [N-1-(2'-Butoxi-diethyl-ether-(2))-pyrrolidin] | – | – | – | – | – | – | Synergistischer Faktor bei Ripcord (in vivo): 2,47; Wirksamkeit in % Substanz +Ripcord [7]: 78,0%; Wirksamkeit in % Substanz +Talcord [7]: 8,9%; Wirksamkeit in % Substanz allein [7]: 0%
C=CCN1CCCCC1 [N-1-Allyl-piperidin] | 2,32 | 1,36 | 0 | 73,2% | 13,2% | – | –
c1ccc(C(N2CCCCC2)N2CCCCC2)cc1 [Benzal-di-N,N-piperidin] | – | – | 0 | 40,0% | 18,8% | – | Synergistischer Faktor bei Ripcord (in vivo): 1,26; Synergistischer Faktor bei Talcord (in vivo): 1,94
CC(C)=CCCC(C)=CCN1CCCCC1 [N-1-Piperidino-3,7-dimethyl-octadien-(2,6)] | 2,79 | 8,37 | 0 | 88,0% | 81,2% | – | –
CCCCCCCCCCCCCN1CCCC1 [N-1-Tridecyl-pyrrolidin] | 1,78 | 2,19 | – | 78,8% | 44,0% | 22.8 | –
CCCCCCCCCCCCCCN1CCCC1 [N-1-Tetradecyl-pyrrolidin] | 1,59 | – | – | 50,0% | 6,0% | 0 | –
Oc1cc(CN2CCCCC2)c(O)cc1CN1CCCCC1 [2,5-Bis-(N-piperidino-methyl)-hydrochinon] | 1,78 | 2,47 | 0 | 56,0% | 24,0% | – | –
CCCCCCCCCCN1CCOCC1 [N-1-Decyl-morpholin] | 2,32 | 8,37 | – | 73,1% | 81,2% | 0 | –
c1cc2c(cc1CN1CCOCC1)OCO2 [N-Piperonyl-morpholin] | 2,32 | 3,84 | – | 73,2% | 37,2% | 0 | –
O=C(OCc1ccccc1)C(c1ccccc1)N1CCCCC1 (stereo not drawn) [Phenyl-N-piperidino-essig-säure-benzylester] | 3,05 | 2,89 | 0 | 96,0% | 28,0% | – | –
CCCCCCCCCCCCN1CC1 [N-1-Dodecyl-ethylenimin] | 2,86 | 3,71 | – | 90,0% | 36,0% | – | mortality at 1000 µg/mL (Sitophilus granarius, 3 h): 0%
CC(C)=CCC/C(C)=C\CN1CCCCC1 [cis-8-N-Piperidino-2,6-di-methyl-octadien-(2,6)] | 2,16 | 2,76 | 0 | 68,0% | 26,8% | – | –
1-N-p-Menthen-piperidin | 1,90 | 7,42 | 0 | 60,0% | 72,0% | – | –
CCCCOCCOCCN1CCCCCC1 [N-(2'-Butoxi-diethylether-(2))-hexamethylenimin] | – | – | – | – | – | – | Synergistischer Faktor bei Ripcord (in vivo): 2,50; Synergistischer Faktor bei Talcord (in vivo): 3,30; Wirksamkeit in % Substanz +Ripcord [7]: 78,8%; Wirksamkeit in % Substanz +Talcord [7]: 32,0%; Wirksamkeit in % Substanz allein [7]: 0%
CCCCCCCCCCCCN1CCCCC1C (stereo not drawn) [N-1-Dodecyl-2-methyl-piperidin] | 1,49 | 2,06 | – | 46,8% | 20,0% | 0 | –
CCCCCCCCCCCCN1CCCCC1 [N-1-Dodecyl-piperidin] | 2,24 | – | – | 94,6% | – | 24 | –
OCCC(O)N1CCCC1 (stereo not drawn) [1-N-Pyrrolidino-propandiol-(1,3)] | 3,17 | 8,12 | 0 | 100,0% | 78,8% | – | –
CCCCCCCCCCCN1CCCC1 [N-1-Undecyl-pyrrolidin] | – | – | – | – | – | – | Synergistischer Faktor bei Ripcord (Pyrethroid : Amin 1 : 10): 3,09; Synergistischer Faktor bei Talcord (Pyrethroid : Amin 1 : 10): 7,42; % Wirkung Substanz +Ripcord [8]: 97,2%; % Wirkung Substanz +Talcord [8]: 72,0%; mortality at 100 µg/mL (Sitophilus granarius, 3 h, amine 0,1 mg/ml (as for Pyrethroid : Amin 1 : 10), read-out: % Wirkung Substanz allein): 0%
C(=Cc1ccccc1)CN1CCOCC1 [N-Cinnamyl-morpholin] | 1,74 | 4,54 | – | 54,8% | 44,0% | 0 | –
c1ccc(CN2CCCC2)cc1 [N-Benzyl-pyrrolidin] | 2,45 | 1,65 | – | 77,2% | 16,0% | 0 | –
C(CCCN1CCCCC1)CCN1CCCCC1 [1,6-N,N-Di-piperidino-hexan] | 2,82 | – | 0 | 57,2% | 2,8% | – | –
CCC1CCCCN1Cc1ccccc1 (stereo not drawn) [N-Benzyl-2-ethyl-piperidin] | 2,50 | 1,53 | – | 78,8% | 14,8% | 0 | –
C1CCN(CCOCCOCCN2CCCC2)C1 [1,2-Bis-(2-N-pyrrolidino-ethoxi)-ethan] | 3,17 | 7,13 | 0 | 100,0% | 69,2% | – | –
CCC/C=C(\CC)CN1CCCC1 [cis-3-N-pyrrolidino-methyl-hepten-(3)] | 1,61 | 1,65 | 0 | 50,8% | 16,0% | – | –
OCC(CO)(CO)CN1CCCCC1 [N-Piperidino-pentaerythrit] | 1,99 | 3,30 | 0 | 62,8% | 32,0% | – | –
c1ccc(C(c2ccccc2)N2CCOCC2)cc1 [N-Diphenyl-methyl-morpholin] | 2,29 | 4,12 | 0 | 72,0% | 40,0% | – | –
CCCCCN1CCCC1 [N-1-Pentyl-pyrrolidin] | 2,37 | 10,3 | – | 74,8% | 100,0% | 0 | –

Source: EP0029617A1, “Use of tertiary heterocyclic amines as synergists in pesticides; derivatives of cycloamines” (priority 1979, dated 1981)
